Test results taken from publication PMC5024298, “The coiled-coil domain of zebrafish TRPM7 regulates Mg·nucleotide sensitivity” (Scientific Reports, 2016).
“And” between values parts separate entries of the source, which are not always exact repeats. Equal values may be shown once. Read-outs that look alike come from different tables or passages of the source. One block for each compound: values may come before it.

What was measured:
[1] = test system: zebrafish TRPM7 (drTRPM7) wild type; test: Whole-cell patch-clamp of tetracycline-induced HEK293 T-REx cells overexpressing wild type drTRPM7; format: cell-based, zebrafish (Danio rerio); conditions: for effect of extracellular divalent application on monovalent outward currents: 10 mM divalent replacing 10 mM Ca^2+, NMDG external solution; for Biophysical characteristic: effect on drTRPM7 (Table 1): heterologous drTRPM7; for IC50: 200 s
Description: (§1) HEK293 T-REx cells stably expressing HA-tagged Danio rerio TRPM7 (drTRPM7) wild type or mutants were cultured in DMEM with 10% FBS and 5 μg/ml of blasticidin and 200 μg/ml hygromycin. HEK293 T-REx cells were incubated at 37 °C and 5% CO2. Expression was induced by adding 1 μg/ml tetracycline to the growth media 20 hours before experiments. […] Chicken DT40 wild type and DT40 cells with a TRPM7 […] (DT40 TRPM7-KO) cells were maintained as described before.
(§2) Patch-clamp experiments were performed in the tight-seal whole-cell configuration at room temperature (20–25 °C). Whole-cell currents were recorded with the EPC9 (HEKA, Bellmore, NY) and Patchmaster v2.4 (HEKA). Voltages were corrected for a liquid junction potential of 10 mV. The patch pipettes were pulled from borosilicate glass (Sutter Instruments, USA) with resistances of 2.5–3.5 MΩ when filled with internal solution. The voltage ramp protocol ranged from −100 mV to 100 mV over 50 ms and applied at 0.5 Hz. Current amplitudes were measured at −80 mV and +80 mV. The holding potential was set to 0 mV in all experiments. Currents were filtered at 2.9 kHz and digitized at 10 kHz. Cells were seeded on glass cover slips 1–2 days before the day of the experiment. Cover slips were submerged in the external solution at room temperature (20–25 °C). Cover slips and external solutions were replaced every hour.
The standard external solution contained (in mM): 140 NaCl, 2.8 KCl, 2 MgCl2, 11 glucose, 10 HEPES, and 1 CaCl2. The divalent profile experiments were performed using a modified external solution that contained (in mM): 140 N-methyl-D-glucamine (NMDG), 11 glucose, 10 HEPES and 10 CaCl2. For application, 10 mM CaCl2 was replaced with 10 mM of the respective divalent under study. The standard internal solution contained (in mM): 140 Cs-glutamate, 8 NaCl, 10 HEPES, and 10 Cs-BAPTA. pH was adjusted to 7.2 and osmolarity was kept between 290–330 mOsm. The solutions for pH below 6.0 contained (in mM): 140 NaCl, 2.8 KCl, 2 MgCl2, 11 glucose, 10 MES, and 1 CaCl2. For the Mg·ATP dose-response analysis, the internal solution contained (in mM): 120 Cs-glutamate, 8 NaCl, 10 HEPES, 10 Cs-BAPTA. Na·ATP and MgCl2 was used to achieve appropriate concentrations of free intracellular Mg^2+ and Mg·ATP as calculated using WebmaxC Standard (http://www.stanford.edu/~cpatton/webmaxcS.htm).
Statistical analysis was performed using Fitmaster (version 2.69; HEKA, Germany) and Igor software (version 6.34; WaveMetrics, USA). The p-values were calculated using Microsoft Excel version 14.1.2 using the two-tailed paired Student’s T-test. Data were normalized to cell size and expressed as current density (pA/pF), or normalized to the time point right before application (I/I[time]s). […] Dose-response fits were assessed using the fit function f(x) = ([Maximum current] *(1/(1 + ([Estimated IC50]/x)^[Hill coefficient])). The IC50 or EC50 values calculated with the dose-response curve function were reported with ± standard deviation (S.D.).
To study channel biophysics, HA-tagged wild type zebrafish TRPM7 (drTRPM7) was cloned and stably expressed in HEK293 T-REx cells under tetracycline-inducible promotor (see methods; ref. [3]). […] Both clones were also tested for drTRPM7 expression using the whole-cell patch-clamp technique.

[2] = test system: endogenous TRPM7-like currents in ZFL cells; test: Whole-cell patch-clamp of endogenous TRPM7-like currents in zebrafish liver cell line ZFL; format: cell-based
Description: as §1, §2

Human TRPM6 = conditions: cited from earlier work
Mammalian TRPM7 = conditions: cited from earlier work
human TRPM7 (hTRPM7) = conditions: cited from earlier work
drTRPM7-1478 = test: Whole-cell patch-clamp of HEK293 T-REx cells overexpressing truncation mutant drTRPM7-1478; format: cell-based, zebrafish (Danio rerio); conditions: +80 mV, 200 s; Hill = 2, 1.5 (Fig. 6 legend); read-out: IC50 of internal Mg^2+
Description: Patch-clamp experiments were performed in the tight-seal whole-cell configuration at room temperature (20–25 °C). Whole-cell currents were recorded with the EPC9 (HEKA, Bellmore, NY) and Patchmaster v2.4 (HEKA). Voltages were corrected for a liquid junction potential of 10 mV. […] Current amplitudes were measured at −80 mV and +80 mV. […]
(§3) The standard external solution contained (in mM): 140 NaCl, 2.8 KCl, 2 MgCl2, 11 glucose, 10 HEPES, and 1 CaCl2. […] Na·ATP and MgCl2 was used to achieve appropriate concentrations of free intracellular Mg^2+ and Mg·ATP as calculated using WebmaxC Standard (http://www.stanford.edu/~cpatton/webmaxcS.htm).

drTRPM7-1258 = test: Whole-cell patch-clamp of HEK293 T-REx cells overexpressing truncation mutant drTRPM7-1258; format: cell-based, zebrafish (Danio rerio)
Description: (§4) Patch-clamp experiments were performed in the tight-seal whole-cell configuration at room temperature (20–25 °C). Whole-cell currents were recorded with the EPC9 (HEKA, Bellmore, NY) and Patchmaster v2.4 (HEKA). Voltages were corrected for a liquid junction potential of 10 mV. The patch pipettes were pulled from borosilicate glass (Sutter Instruments, USA) with resistances of 2.5–3.5 MΩ when filled with internal solution. The voltage ramp protocol ranged from −100 mV to 100 mV over 50 ms and applied at 0.5 Hz. Current amplitudes were measured at −80 mV and +80 mV. The holding potential was set to 0 mV in all experiments. Currents were filtered at 2.9 kHz and digitized at 10 kHz. Cells were seeded on glass cover slips 1–2 days before the day of the experiment. […]
as §3

drTRPM7-1178 = test: Whole-cell patch-clamp of HEK293 T-REx cells overexpressing truncation mutant drTRPM7-1178; format: cell-based, zebrafish (Danio rerio)
Description: as §4, §3

[3] = 1 mM intracellular Mg·ATP, 250 μM free Mg^2+

SMILES: [Cd] [cadmium]
effect of extracellular divalent application on monovalent outward currents ([1]; +80 mV): facilitated outward currents

SMILES: [Ba+2] [barium]
effect of extracellular divalent application on monovalent outward currents ([1]; +80 mV): facilitated outward currents

SMILES: [Ni+2] [nickel]
effect of extracellular divalent application on monovalent outward currents ([1]; +80 mV): almost completely suppressed

SMILES: NCCOB(c1ccccc1)c1ccccc1 [2-APB, 2-aminoethyl diphenylborinate, reference compound]
facilitation of inward and outward drTRPM7-like currents ([2]; 500 μM 2-APB applied at 400 s): 50% | effect of 2-APB on human TRPM6 (Human TRPM6; Table 1): Potentiation[12] | effect on human TRPM6 currents (Human TRPM6): enhances | effect of 2-APB on mammalian TRPM7 (Mammalian TRPM7; Table 1): Inhibition[12] | effect of 2-APB on drTRPM7 currents ([1]; concentrations of 300 μM and above): greatly enhanced | Biophysical characteristic: effect on drTRPM7 (Table 1) [1]: Potentiation | effect of 2-APB on drTRPM7 currents ([1]; lower concentrations (30 μM and 100 μM)): small but statistically not significant inhibitory effect | effect of 2-APB on drTRPM7 currents ([1]; various concentrations, up to 500 μM, external application): facilitated rather than inhibited | effect of 2-APB on hTRPM7 currents (human TRPM7 (hTRPM7)): inhibits

SMILES: [Co+2] [cobalt]
effect of extracellular divalent application on monovalent outward currents ([1]; +80 mV): almost completely suppressed

IC50 (drTRPM7-1478): 450 ± 0.55 µM | IC50 (drTRPM7-1258; +80 mV, 200 s, Hill = 2, read-out: IC50 of internal Mg^2+): 250 ± 0.52 µM | IC50 (drTRPM7-1178; +80 mV, 200 s, Hill = 3, read-out: IC50 of internal Mg^2+): 840 ± 158 µM
SMILES: [Mg+2] [Mg^2+, magnesium]
effect of intracellular free Mg^2+ on drTRPM7-like current development ([2]; 3.2 mM free Mg^2+ in pipette solution): completely suppressed | IC50 (Human TRPM6; Table 1, read-out: IC50 of Mg^2+ on human TRPM6): 29 µM | IC50 (Mammalian TRPM7; Table 1, read-out: IC50 of Mg^2+ on mammalian TRPM7): 720 µM | IC50 (Mammalian TRPM7; read-out: IC50 of intracellular Mg^2+ on heterologous and/or native mouse and human TRPM7): ~750 µM | effect of extracellular divalent application on monovalent outward currents ([1]; +80 mV): almost completely suppressed | IC50 ([1]; current at +80 mV, Hill coefficient 1, read-out: IC50 of intracellular free Mg^2+ on drTRPM7 currents): 778 µM

SMILES: C=C1CC/C=C(\C)CC[C@@H]2C([C@H](C/C=C(\C)COC(C)=O)OC(C)=O)=CO[C@H](OC(C)=O)[C@@H]12 [Waixenicin A, reference compound]
effect on human TRPM6 currents (Human TRPM6): No effect[14] | effect on human TRPM6 currents (Human TRPM6; listed as waixenicin A): no significant effect | effect of waixenicin A on mammalian TRPM7 (Mammalian TRPM7; Table 1): Inhibition[13] | effect of waixenicin A on drTRPM7 currents ([1]; 10 μM waixenicin A, 410 μM internal free Mg / 780 μM free Mg^2+ (Fig. 4 legend)): no effect | Biophysical characteristic: effect on drTRPM7 (Table 1) [1]: No effect

SMILES: Nc1ncnc2c1ncn2[C@@H]1O[C@H](COP(=O)(O)OP(=O)([O-])OP(=O)([O-])O)[C@@H](O)[C@H]1O.[Mg+2] [Mg·ATP, Mg·adenosine triphosphate]
effect on human TRPM6 currents (Human TRPM6): No effect[14] | IC50 (Mammalian TRPM7; Table 1, read-out: IC50 of Mg·ATP on mammalian TRPM7): 2000 µM | IC50 ([1]; internal free Mg^2+ 250 μM, +80 mV, Hill coefficient 1, read-out: IC50 of intracellular Mg·ATP on drTRPM7 currents): 1160 µM and 1200 µM | IC50 ([1]; internal free Mg^2+ 250 μM, +80 mV, Hill coefficient set to 1, read-out: IC50 of intracellular Mg·ATP on drTRPM7 currents (Fig. 1E legend)): 1160 ± 700 µM | effect of Mg·ATP on drTRPM7-1258 currents (drTRPM7-1258; [3]): fully inhibited | sensitivity to intracellular Mg·ATP of drTRPM7-1258 compared to drTRPM7-1478 and wild type (drTRPM7-1258; ratio of IC50 values): about 4 fold | effect of Mg·ATP on drTRPM7-1178 currents (drTRPM7-1178; [3]): did not seem to have any effect | sensitivity of drTRPM7-1178 currents to intracellular Mg·ATP (drTRPM7-1178; up to 6 mM Mg·ATP, 250 μM free Mg^2+): completely lost any sensitivity

SMILES: [Sr+2] [strontium]
effect of extracellular divalent application on monovalent outward currents ([1]; +80 mV): facilitated outward currents
